This experiment concerns histamine release from lung fragments. As to the kind of experiment: Inhibition of histamine release from sensitized guinea pig lung fragments. Format: cell-based, guinea pig (Hartley strain). Conditions: Cavia porcellus, read-out: Inhibition ratio (%) Histamine; for inhibition at 3 µM: Table 2, dose 3 μM; for inhibition at 30 µM: Table 2, dose 30 μM. Here is the method: Inhibitory activities on the release of SRS-A and histamine of the present compounds were determined.
A male guinea pig (Hartley strain) (body weight: about 300 g) was sensitized by a method according to P. Anderson: "Int. Archs. Allergey appln. Immunol., Vol. 64, pages 249-258 (1981). Thus, 30 mg/kg of cyclophosphamide was intraperitoneally administered to the guinea pig, and 2 days after 1 microgram of ovalbumin (manufactured by Sigma Chemical Co., St. Louis, Mo. U. S. A.) together with 10 mg of aluminium hydroxide gel were intraperitoneally administered so as to have the animal sesitized.
50 Days after the sesitization, the animal was killed by exsanguination, and the lung was isolated from the animal and was perfused with 20 ml of Tyrode's solution, then immersed in an ice-cooled Tyrode's solution. The parenchyma of the lung was cut by using McIlwain-type tissue chopper to make it into fragments of lung having 2 mm square and the fragments were washed with Tyrode's solution. 400 Milligrams of sectiles of lung were suspended in 3.6 ml of Tyrode's solution, and this suspension was preincubated at 37° C. for 5 minutes, then 4 microliters of dimethyl sulfoxide solution of the test compound, in the case of control 4 microliters of dimethyl sulfoxide alone was added to the suspension. 5 Minutes after, 0.4 ml of 100 micrograms/ml of ovalbumin solution added so as to release SRS-A for 10 minutes. The suspension was ice-cooled and filtered through gauze, the filtrate was centrifuged at 2,000 rpm for 10 minutes and the supernatant was collected. The supernatant was stored in freezed state at -80° C. until bio-assay was conducted.
Amounts of SRS-A and histamine contained in the supernatant were determined by bio-assay using ileum of guinea pig.
A piece of the ileum (2-3 cm of length) positioned from 15-25 cm from the opening portion of ileocecum was isolated from a male guinea pig (Hartley strain) (body weight: 400-600 g) which was fasted for 24 hours. The piece of ileum was hanged vertically in a Magnus tube which was filled with 10 ml of Tyrode's solution containing 10^-7 M of atropine sulfate under air stream conditions. The isotonic contraction of the piece of the ileum was measured at 0.5 g of load by using an isotonic transducer "TD-112S" (manufactured by Nihon Koden Co., Ltd.). The measurements were carried out after the reaction to histamine of the piece of ileum was kept constant. Bioassay of histamine was measured by using the value of contraction shown in 30 seconds after the addition of the supernatant. Bioassay of on SRS-A was measured by using the value of contraction shown at 2 minutes after the addition of the supernatant in the presence of 10^-6 M of pyrilamine (manufactured by Sigma Chemical Co.), and compared with the standard curve of crude SRS-A released from the fragments of the lung.

As to `COC1=CC(=O)C(OC)=C(CCCCCC2=C(OC)C(=O)C=C(OC)C2=O)C1=O` [Test Compound No. 9, 2,2'-Pentamethylenebis(3,6-dimethoxy-1,4-benzoquinone)], the inhibition at 3 µM is -15% and the inhibition at 30 µM stood at 4.1%.

Regarding `COC1=CC(=O)C(OC)=C(CCCCCCCCCC2=C(OC)C(=O)C=C(OC)C2=O)C1=O` [Test Compound No. 13, 2,2'-Nonamethylenebis(3,6-dimethoxy-1,4-benzoquinone)], the inhibition at 3 µM was -2.7% and the inhibition at 30 µM was -14.9%.
